# ChEMBL document CHEMBL4665661, “Design, synthesis, and biological activity evaluation of (-)-6-O-desmethylantofine analogues as potent anti-cancer agents” (Bioorg Med Chem, 2019)
# Activity calls are given as the source filed them. No cut-off for these calls is given here.
# Tests used:
# [1] = test system: U-118-MG; assay: Antiproliferative activity against human U-118-MG cells incubated for 72 hrs by MTT assay; assay type: functional, cell-based
# [2] = test system: KB; assay: Cell cycle arrest in human KB cells assessed as inhibition of DNA synthesis by measuring increase in cell population at S phase at 1 to 10 nM upto 12 hrs by RNase A/propidium iodide staining-based flow cytometric analysis; assay type: functional; details: dose nM 1-10, time hrs <=12
# [3] = test system: PC-3; assay: Antiproliferative activity against human PC-3 cells incubated for 72 hrs by MTT assay; assay type: functional, cell-based
# [4] = test system: SJRH30; assay: Antiproliferative activity against human SJRH30 cells incubated for 72 hrs by MTT assay; assay type: functional, cell-based
# [5] = test system: Detroit 562; assay: Antiproliferative activity against human Detroit 562 cells incubated for 72 hrs by MTT assay; assay type: functional, cell-based
# [6] = test system: COLO 205; assay: Antiproliferative activity against human COLO 205 cells incubated for 72 hrs by MTT assay; assay type: functional, cell-based
# [7] = test system: Huh-7; assay: Antiproliferative activity against human HuH7 cells incubated for 72 hrs by MTT assay; assay type: functional, cell-based
# [8] = test system: HepG2; assay: Antiproliferative activity against human HepG2 cells incubated for 72 hrs by MTT assay; assay type: functional, cell-based
# [9] = test system: Bel-7402; assay: Effect on DNA damage marker protein level in human Bel-7402 cells assessed as phosphorylation of CHK2 at Thr68[…] at 100 fold antiproliferative IC50 after 1 hr by Western blot analysis; assay type: functional, cell-based
# [10] = test system: MDA-MB-231; assay: Antiproliferative activity against human MDA-MB-231 cells incubated for 72 hrs by MTT assay; assay type: functional, cell-based
# [11] = test system: Hep 3B2; assay: Antiproliferative activity against human Hep3B cells incubated for 72 hrs by MTT assay; assay type: functional, cell-based
# [12] = test system: Bel-7402; assay: Cell cycle arrest in human Bel-7402 cells assessed as increase in cell population at S phase at 11 nM by RNase A/propidium iodide staining-based flow cytometric analysis (reference value: 26.3%); assay type: functional
# [13] = test system: BXPC-3; assay: Antiproliferative activity against human BxPC-3 cells incubated for 72 hrs by MTT assay; assay type: functional, cell-based
# [14] = test system: Bel-7402; assay: Antiproliferative activity against human Bel-7402 cells incubated for 72 hrs by MTT assay; assay type: functional, cell-based
# [15] = test system: K562; assay: Cell cycle arrest in human K562 cells assessed as inhibition of DNA synthesis by measuring increase in cell population at S phase at 1 to 100 nM upto 24 hrs by RNase A/propidium iodide staining-based flow cytometric analysis; assay type: functional; details: dose nM 1-100, time hrs <=24
# [16] = test system: K562; assay: Cell cycle arrest in drug- resistant human K562/ADR cells assessed as inhibition of DNA synthesis by measuring increase in cell population at S phase at 1 to 100 nM upto 24 hrs by RNase A/propidium iodide staining-based flow cytometric analysis; assay type: functional; details: dose nM 1-100, time hrs <=24
# [17] = test system: Bel-7402; assay: Induction of apoptosis in human Bel-7402 cells assessed as early apoptotic cells at 0.01 uM after 72 hrs by FITC-annexin V/propidium iodide-double staining based flow cytometry (reference value: 0.65%); assay type: functional
# [18] = test system: SMMC-7721; assay: Antiproliferative activity against human SMMC-7721 cells incubated for 72 hrs by MTT assay; assay type: functional, cell-based
# [19] = test system: Bel-7402; assay: Induction of apoptosis in human Bel-7402 cells assessed as viable cells at 0.1 uM after 72 hrs by FITC-annexin V/propidium iodide-double staining based flow cytometry (reference value: 93.6%); assay type: functional; details: read-out: Activity
# [20] = test system: BEL-7404 tumor cell line; assay: Antiproliferative activity against human BEL-7404 cells incubated for 72 hrs by MTT assay; assay type: functional, cell-based
# [21] = test system: Bel-7402; assay: Cell cycle arrest in human Bel-7402 cells assessed as increase in cell population at S phase at 100 nM by RNase A/propidium iodide staining-based flow cytometric analysis (reference value: 26.3%); assay type: functional
# [22] = test system: Bel-7402; assay: Induction of apoptosis in human Bel-7402 cells assessed as early apoptotic cells at 0.1 uM after 72 hrs by FITC-annexin V/propidium iodide-double staining based flow cytometry (reference value: 0.65%); assay type: functional
# [23] = test system: Zip177; assay: Antiproliferative activity against human […] cells incubated for 72 hrs by MTT assay; assay type: functional, cell-based
# [24] = test system: Bel-7402; assay: Inhibition of colony formation in human Bel-7402 cells upto 1 uM incubated for 24 hrs measured after 12 days by 2D colony formation assay; assay type: functional, cell-based; details: time 12.0 day
# [25] = test system: HCT-116; assay: Antiproliferative activity against human HCT-116 cells incubated for 72 hrs by MTT assay; assay type: functional, cell-based
# [26] = test system: Bel-7402; assay: Antiproliferative activity against human Bel-7402 cells after 72 hrs by SRB assay; assay type: functional, cell-based; details: Bel-7402, 72 h
# [27] = test system: K562/Adr; assay: Antiproliferative activity against drug- resistant human K562/ADR cells; assay type: functional, cell-based
# [28] = test system: Bel-7402; assay: Effect on DNA damage marker protein level in human Bel-7402 cells assessed as phosphor gamma H2AX at 100 fold antiproliferative IC50 after 1 hr by Western blot analysis; assay type: functional, cell-based
# [29] = test system: MDA-MB-157; assay: Antiproliferative activity against human MDA-MB-157 cells incubated for 72 hrs by MTT assay; assay type: functional, cell-based
# [30] = test system: 786-0; assay: Antiproliferative activity against human 786-0 cells incubated for 72 hrs by MTT assay; assay type: functional, cell-based
# [31] = test system: Bel-7402; assay: Induction of apoptosis in human Bel-7402 cells assessed as viable cells at 0.01 uM after 72 hrs by FITC-annexin V/propidium iodide-double staining based flow cytometry (reference value: 93.6%); assay type: functional; details: read-out: Activity
# [32] = test system: HeLa; assay: Antiproliferative activity against human HeLa cells incubated for 72 hrs by MTT assay; assay type: functional, cell-based
# [33] = test system: Bel-7402; assay: Inhibition of DNA synthesis in human Bel-7402 cells assessed as Brdu positive cells at 0.01 uM measured after 1 hr by propidium iodide staining-based BrdU incorporation assay (reference value: 29.8%); assay type: functional; parameters: scale not given: the % may be the effect or the level left; details: time 30 min, 0.5 h
# [34] = test system: Bel-7402; assay: Induction of apoptosis in human Bel-7402 cells assessed as necrotic cells at 0.01 uM after 72 hrs by FITC-annexin V/propidium iodide-double staining based flow cytometry (reference value: 2.86%); assay type: functional
# [35] = test system: KB; assay: Antiproliferative activity against human KB cells; assay type: functional, cell-based
# [36] = test system: SK-OV-3; assay: Antiproliferative activity against human SK-OV-3 cells incubated for 72 hrs by MTT assay; assay type: functional, cell-based
# [37] = test system: Bel-7402; assay: Inhibition of DNA synthesis in human Bel-7402 cells assessed as Brdu positive cells at 0.1 uM measured after 1 hr by propidium iodide staining-based BrdU incorporation assay (reference value: 29.8%); assay type: functional; parameters: scale not given: the % may be the effect or the level left; details: time 30 min, 0.5 h
# [38] = test system: Bel-7402; assay: Induction of apoptosis in human Bel-7402 cells assessed as necrotic cells at 1 uM after 72 hrs by FITC-annexin V/propidium iodide-double staining based flow cytometry (reference value: 2.86%); assay type: functional
# [39] = test system: SK-BR-3; assay: Antiproliferative activity against human SK-BR-3 cells incubated for 72 hrs by MTT assay; assay type: functional, cell-based
# [40] = test system: Bel-7402; assay: Induction of apoptosis in human Bel-7402 cells assessed as necrotic cells at 1 uM after 3 days by […]; assay type: functional; details: time 3 day
# [41] = test system: KB; assay: Antiproliferative activity against human KB cells incubated for 72 hrs by MTT assay; assay type: functional, cell-based
# [42] = test system: SK-HEP1; assay: Antiproliferative activity against human SK-HEP 1 cells incubated for 72 hrs by MTT assay; assay type: functional, cell-based
# [43] = test system: Bel-7402; assay: Induction of apoptosis in human Bel-7402 cells assessed as necrotic cells at 0.1 uM after 72 hrs by FITC-annexin V/propidium iodide-double staining based flow cytometry (reference value: 2.86%); assay type: functional
compound,measurement,setting,value
COc1cc2c3c(c4ccc(OCC#N)cc4c2cc1OC)CN1CCC[C@@H]1C3,inhibition,[1],Active
same,Activity,[2],Active
same,inhibition,[3],Active
same,inhibition,[4],Active
same,inhibition,[5],Active
same,inhibition,[6],Active
same,inhibition,[7],Active
same,inhibition,[8],Active
same,Activity,[9],inactive
same,inhibition,[10],Active
same,inhibition,[11],Active
same,Activity,[12],28.8%
same,inhibition,[13],Active
same,inhibition,[14],Active
same,Activity,[15],Active
same,Activity,[16],Active
same,Activity,[17],0.55%
same,inhibition,[18],Active
same,viability at 0.1 µM,[19],87.8%
same,inhibition,[20],Active
same,Activity,[21],41.3%
same,Activity,[22],0.78%
same,inhibition,[23],Active
same,inhibition,[24],Active
same,inhibition,[25],Active
same,IC50,[26],12 nM
same,IC50,[27],15.8 nM
same,Activity,[28],inactive
same,inhibition,[29],Active
same,inhibition,[30],Active
same,viability at 0.01 µM,[31],96.3%
same,inhibition,[32],Active
same,Activity,[33],26.9%
same,Activity,[34],1.59%
same,IC50,[35],1100 nM
same,inhibition,[36],Active
same,Activity,[37],13%
same,Activity,[38],3.73%
same,inhibition,[39],Active
same,Activity,[40],20%
same,inhibition,[41],Active
same,inhibition,[42],Active
same,Activity,[43],3.09%
